Values of other authors, collected in paper PMC5156321 (Natural product communications, 2014).
pIC50: −log10 of the molar value. Read-outs that look alike come from different tables or passages of the source.

How the values were obtained:
[1] = tested on: non-small cell lung cancer NCI-H522; settings: NCI-DTP 60
[2] = target: matrix metalloproteinase-3 (MMP-3); settings: for pIC50: read-out: MMP-3 IC50
UMUC3 [3] = settings: read-out: IC50 (μM) Nuclei Count Proliferation UMUC3; tested at MSKCC
HeLaS3 [4] = settings: read-out: IC50 (μM) Alamar Blue Viability HeLaS3; tested at MSKCC
UMUC3 [5] = settings: read-out: IC50 (μM) Alamar Blue Viability UMUC3; tested at MSKCC
Y79 = settings: read-out: IC50 (μM) Nuclei Count Proliferation Y79; tested at MSKCC
HeLaS3 [6] = settings: read-out: IC50 (μM) Nuclei Count Proliferation HeLaS3; tested at MSKCC
H3255 = settings: read-out: IC50 (μM) Nuclei Count Proliferation H3255; tested at MSKCC
caspase-1 = settings: for pIC50: read-out: Caspase-1 IC50; for Caspase-1 IC100: tested at 100 μg/mL and 10 μg/mL; for caspase-1 % inhibition: test concentration 100 μg,mL
leukemia CCRFCEM = settings: NCI-DTP 60
leukemia HL-60 = settings: NCI-DTP 60
[7] = tested on: IL-1β production in induced THP-1 cells; settings: for pIC50: read-out: IL-1β production (IC50), LPS and multi-walled carbon nanotubes-induced THP-1 cells; for inhibition of cytokine production in induced inflammasome assay: at the nm level, Figure 11
[8] = tested on: non-small cell lung cancer NCI-H460; settings: NCI-DTP 60
all leukemia cell lines = settings: NCI-DTP 60
leukemia RPMI-8226 = settings: NCI-DTP 60
leukemia SR = settings: NCI-DTP 60
[9] = test concentrations 100 μg/mL and 10 μg/mL

CC(C)C[C@H]1C[C@H]([C@@H](O)CC(=O)Cc2ccccc2)C(=O)N1 [Berkeleyamide A (21), Berkeleyamide A]
NCI-H522 log10 GI100 [1]: log10 GI100: 10 μM;

C=C1[C@@]2(C)C[C@H]3[C@@]4(C)C(=CC[C@]3(C)[C@]1(C(=O)OC)C(=O)[C@@](C)(O)C2=O)C(C)(C)C(=O)C[C@H]4O [Berkeleytrione (9), berkeleytrione]
pIC50 [2]: 3.74

C/C=C(\C)C(=O)O[C@H]1C=CC(=O)O[C@H]1/C=C/[C@H](O)[C@H](C)O [compound 34, Phomopsolide B]
IC50 (UMUC3 [3]): 6.1 µM

C/C=C(\C)C(=O)O[C@H]1C=CC(=O)O[C@H]1/C=C/C(=O)[C@H](C)O [compound 35, Phomopsolide C]
IC50 (HeLaS3 [4]): 3.6 µM | IC50 (UMUC3 [5]): 2.2 µM | IC50 (Y79): 1.4 µM | IC50 (HeLaS3 [6]): 2.7 µM | IC50 (UMUC3 [3]): 1.4 µM | IC50 (H3255): 2.6 µM

C/C=C(\C)C(=O)O[C@H]1C=CC(=O)O[C@H]1CCC(=O)[C@H](C)O [compound 36, Phomopsolide E]
IC50 (HeLaS3 [6]): 7.3 µM | IC50 (UMUC3 [3]): 6.6 µM

C/C=C/c1cc(=O)c([C@@H]2OC(=O)c3cc(OC)cc(OC)c32)co1 [Vermistatin (28), vermistatin]
caspase-1 inhibition (caspase-1; [9]): not inhibitory

CCCCC[C@@H]1Cc2cc(O)c(C(=O)O)c3c2[C@H](C[C@]2(OC[C@H](CC(=O)C(C)(CC)C(=O)OC)[C@H]2C)O3)O1 (stereo partly drawn) [Berkelic acid (1), berkelic acid]
pIC50 [2]: 5.73 | pIC50 (caspase-1): 4.01 | activity in the NCI-DTP60 against OVCAR-3 (OVCAR-3): active | GI50 (OVCAR-3; read-out: GI50 NCI-DTP: OVCAR-3, NCI-DTP 60): 0.091 µM

C/C=C/C1=CC2=CC(=O)[C@@H](C)[C@H](O)[C@H]2CO1 [Berkazaphilone A (25), Berkazaphilone A]
Caspase-1 IC100 (caspase-1): Caspase-1: 100 μg/mL

COc1cc(OC)c2c(c1)C(=O)O[C@H]2c1coc(C)cc1=O [Penisimplicissimum (30), penisimplicissin]
Caspase-1 IC100 (caspase-1): Caspase-1: 100 μg/mL | leukemia CCRFCEM log10 GI50 (leukemia CCRFCEM): leukemia CCRFCEM: log10 GI50 (−6.70) | leukemia HL-60 log10 GI50 (leukemia HL-60): leukemia HL-60: log10 GI50 (−5.83)

COC(=O)[C@]12C(=O)[C@H](C)O[C@@H]3OC(=O)[C@](C)(C[C@H]4C(C)=C5CC(=O)OC(C)(C)C5=CC[C@@]41C)[C@@H]32 [berkeleyacetals A (17), berkeleyacetal A]
MMP-3 inhibition, concentration range [2]: mM range | caspase-1 inhibition, concentration range (caspase-1): mM range

C=C1[C@@]2(C)C[C@H]3[C@]4(C)CCC(=O)C(C)(C)[C@H]4CC[C@]3(C)[C@]1(C(=O)OC)C(=O)[C@@](C)(O)C2=O [Preaustinoid A (10), preaustinoid A]
caspase-1 inhibition (caspase-1): inhibited caspase-1 activity | caspase-1 % inhibition (caspase-1): 97% | pIC50 [7]: 4.81

COC(=O)[C@]12C(=O)[C@H](C)O[C@@H]3OC(=O)[C@](C)(C[C@H]4[C@]5(CO5)C5=CC(=O)OC(C)(C)C5=CC[C@@]41C)[C@@H]32 [B (18), berkeleyacetal B]
MMP-3 inhibition, concentration range [2]: mM range | caspase-1 inhibition, concentration range (caspase-1): mM range

CCCc1cc(=O)c([C@@H]2OC(=O)c3cc(OC)cc(OC)c32)co1 [dihydrovermistatin (29), dihydrovermistatin]
caspase-1 inhibition (caspase-1; [9]): not inhibitory

C/C=C(\C)C(=O)O[C@H]1C=CC(=O)O[C@H]1/C=C\C(=O)C(C)O (stereo partly drawn) [compound 33, Phomopsolide A]
pIC50 [2]: 4.00 | IC50 (HeLaS3 [4]): 6.3 µM | IC50 (UMUC3 [5]): 6.5 µM | IC50 (HeLaS3 [6]): 5 µM | IC50 (UMUC3 [3]): 4.8 µM

Berkebisabolane B [Berkebisabolane B (5)]
pIC50 [2]: 6.50 | pIC50 (caspase-1): 4.64

C=C1[C@@]2(C)C[C@H]3C(C)=C4CC(=O)OC(C)(C)C4=CC[C@]3(C)[C@]1(C(=O)OC)C(=O)[C@@](C)(O)C2=O [Berkeleydione (8), berkeleydione]
pIC50 [2]: 4.66 | caspase-1 % inhibition (caspase-1): 89% | NCI-H460 log10 GI50 [8]: NCI-H460: log10 GI50 −6.40. | activity towards NCI-H460 [8]: selective activity | pIC50 [7]: 5.36

Berkedrimane A [Berkedrimane A (31)]
caspase-1 IC50 (caspase-1): 60 µg/mL | inhibition of cytokine production in induced inflammasome assay [7]: completely inhibited

phompyrone [compound 38]
pIC50 [2]: < 4.00

C=C1[C@@]2(C)C[C@H]3[C@]4(C)CCC(=O)OC(C)(C)[C@@H]4CC[C@]3(C)[C@]1(C(=O)OC)C(=O)[C@@](C)(O)C2=O [Preaustinoid A1(11), Preaustinoid A1]
caspase-1 % inhibition (caspase-1): 77% | pIC50 [7]: 4.46

C[C@@H]1O[C@@H]2OC(=O)[C@]3(C)C[C@@H]4[C@](C)(C(=O)C=C5C(=CC(=O)OC5(C)C)[C@@]45CO5)[C@H](C1=O)[C@H]23 [berkeleyacetal C (19), berkeleyacetal C]
MMP-3 inhibition, concentration range [2]: micromolar range | caspase-1 inhibition, concentration range (caspase-1): micromolar range | growth inhibition of NCI H460 [8]: inhibited the growth | growth inhibition of all leukemia cell lines (all leukemia cell lines): inhibited the growth

C=C1[C@@]2(C)C[C@@H]3[C@](C)(CC=C4C(C)(C)OC(=O)CC[C@]43C)[C@]1(C(=O)OC)C(=O)[C@@](C)(O)C2=O [Berkeleyone B (13), Berkeleyone B]
caspase-1 % inhibition (caspase-1): 100% | pIC50 [7]: 5.43

C=C(C)C1=CC[C@@]2(C)[C@@H](C[C@]3(C)C(=C)[C@@]2(C(=O)OC)C(=O)[C@@](C)(O)C3=O)[C@]1(C)CCC(=O)O [Berkeleyone C (14), Berkeleyone C]
caspase-1 % inhibition (caspase-1): 0% | pIC50 [7]: 4.42

CC(=O)N[C@H](C(=O)O[C@H]1CCC(C)(C)[C@@H]2CC=C3C(=O)OC[C@]3(O)[C@@]12C)C(C)C [B (32), Berkedrimane B]
caspase-1 IC50 (caspase-1): 50 µg/mL | inhibition of cytokine production in induced inflammasome assay [7]: completely inhibited

C=C1[C@@]2(C)C[C@H]3[C@]4(C)CC[C@@H](O)C(C)(C)[C@H]4CC[C@]3(C)[C@]1(C(=O)OC)C(=O)[C@@](C)(O)C2=O [Berkeleyone A (12), Berkeleyone A]
caspase-1 % inhibition (caspase-1): 68% | pIC50 [7]: 5.57

C/C=C/C1=CC2=CC(=O)[C@](C)(OC(=O)c3c(C)cc(O)cc3O)[C@H](O)[C@H]2CO1 [Berkazaphilone B (26), berkazaphilone B]
Caspase-1 IC100 (caspase-1): Caspase-1: 10 μg/mL | leukemia RPMI-8226 log10 GI50 (leukemia RPMI-8226): leukemia RPMI-8226: log10 GI50 (−5.67) | concentration completely inhibitory to IL-1β production in THP-1 cells [7]: 2.0 µg/mL

CCCCCCCCCC(=O)[C@@]12O[C@@]13C1=COC(C[C@H](C)O)=CC1=CC(=O)[C@]3(C)OC2=O [compound 45, berkchaetoazaphilone B]
caspase-1 inhibition (caspase-1): strongest caspase-1 inhibitor

C/C=C/C1=CC2=CC(=O)[C@](C)(O)[C@H](OC(=O)c3c(C)cc(O)cc3O)[C@H]2CO1 [Berkazaphilone C (27), berkazaphilone C]
Caspase-1 IC100 (caspase-1): Caspase-1: 10 μg/mL | leukemia SR log10 GI50 (leukemia SR): leukemia SR: log10 GI50 (−6.42) | concentration completely inhibitory to IL-1β production in THP-1 cells [7]: 20 µg/mL | inhibition of cytokine production in induced inflammasome assay [7]: completely inhibited

Berkebisabolane A [Berkebisabolane A (4)]
pIC50 [2]: 6.55 | pIC50 (caspase-1): 4.64

Berkebisabolane C [Berkebisabolane C (6)]
pIC50 [2]: 6.47 | pIC50 (caspase-1): 4.64
